Data taken from publication PMC5218480 (PLoS ONE, 2017).

Test system: MV-4-11 cells
Assay: Gene expression microarray analysis (Affymetrix PrimeView) and GSEA
Format: cell-based, human
Set-up: RFU PODN (11730768_x_at) / Fold change /veh PODN (11730768_x_at) / RFU LINC00158 (11744669_a_at) / Fold change /veh LINC00158 (11744669_a_at) / RFU DUSP10 (11751237_a_at) / Fold change /veh DUSP10 (11751237_a_at) / RFU ID3 (11757404_x_at) / Fold change /veh ID3 (11757404_x_at) / RFU PLEKHG5 (11737974_s_at) / Fold change /veh PLEKHG5 (11737974_s_at) / RFU LRRC4B (11730491_at) / Fold change /veh LRRC4B (11730491_at) / RFU GIMAP4 (11747438_a_at) / Fold change /veh GIMAP4 (11747438_a_at) / RFU KRT8 (11758183_x_at) / Fold change /veh KRT8 (11758183_x_at) / RFU CNN1 (11734310_a_at) / Fold change /veh CNN1 (11734310_a_at) / RFU VPS37D (11726825_at) / Fold change /veh VPS37D (11726825_at) / RFU C10orf10 (11716522_x_at) / Fold change /veh C10orf10 (11716522_x_at) / RFU KIR2DL2 /// KIR2DL4 /// KIR2DL5A /// KIR2DL5B /// KIR2DS1 /// KIR2DS2 /// KIR2DS3 /// KIR2DS4 /// KIR3DL3 /// KIR3DL3 /// KIR3DS1 (11738374_at) / Fold change /veh KIR2DL2 /// KIR2DL4 /// KIR2DL5A /// KIR2DL5B /// KIR2DS1 /// KIR2DS2 /// KIR2DS3 /// KIR2DS4 /// KIR3DL3 /// KIR3DL3 /// KIR3DS1 (11738374_at) / RFU C1QL1 (11718748_at) / Fold change /veh C1QL1 (11718748_at) / RFU TMPRSS4 (11747572_a_at) / Fold change /veh TMPRSS4 (11747572_a_at) / RFU HAMP (11756126_x_at) / Fold change /veh HAMP (11756126_x_at) / RFU RNFT2 (11725882_a_at) / Fold change /veh RNFT2 (11725882_a_at) / RFU NR4A2 (11747474_a_at) / Fold change /veh NR4A2 (11747474_a_at) / RFU ABCC12 (11746883_a_at) / Fold change /veh ABCC12 (11746883_a_at) / RFU TMEM136 (11760407_x_at) / Fold change /veh TMEM136 (11760407_x_at) / RFU CLDN22 /// WWC2 (11732394_at) / Fold change /veh CLDN22 /// WWC2 (11732394_at) / RFU HLA-DPB1 (11760878_x_at) / Fold change /veh HLA-DPB1 (11760878_x_at) / RFU SPINT1 (11716480_a_at) / Fold change /veh SPINT1 (11716480_a_at) / RFU GAP43 (11754022_s_at) / Fold change /veh GAP43 (11754022_s_at) / RFU A4GNT (11735810_at) / Fold change /veh A4GNT (11735810_at) / RFU PRB3 (11715151_x_at) / Fold change /veh PRB3 (11715151_x_at) / RFU TUBB4B (11761932_at) / Fold change /veh TUBB4B (11761932_at) / RFU CAPN14 (11732068_a_at) / Fold change /veh CAPN14 (11732068_a_at) / RFU TMCC2 (11721928_a_at) / Fold change /veh TMCC2 (11721928_a_at) / RFU IRGQ (11745062_a_at) / Fold change /veh IRGQ (11745062_a_at) / RFU FAM174B (11720279_a_at) / Fold change /veh FAM174B (11720279_a_at) / RFU TMPRSS4 (11748680_a_at) / Fold change /veh TMPRSS4 (11748680_a_at) / RFU FAM212B (11763350_a_at) / Fold change /veh FAM212B (11763350_a_at) / RFU PLEKHG5 (11743358_a_at) / Fold change /veh PLEKHG5 (11743358_a_at) / RFU ZSCAN30 (11745921_a_at) / Fold change /veh ZSCAN30 (11745921_a_at) / RFU CMKLR1 (11741424_a_at) / Fold change /veh CMKLR1 (11741424_a_at) / RFU LOC101060620 /// MAPK8IP1 (11723275_at) / Fold change /veh LOC101060620 /// MAPK8IP1 (11723275_at) / RFU SPTSSB (11747773_x_at) / Fold change /veh SPTSSB (11747773_x_at) / RFU PRSS12 (11739890_at) / Fold change /veh PRSS12 (11739890_at) / RFU BIN1 (11741810_x_at) / Fold change /veh BIN1 (11741810_x_at) / RFU WNT11 (11732464_a_at) / Fold change /veh WNT11 (11732464_a_at) / RFU C10orf10 (11716521_a_at) / Fold change /veh C10orf10 (11716521_a_at) / RFU C5orf56 (11738089_at) / Fold change /veh C5orf56 (11738089_at) / RFU CYB561 (11721691_x_at) / Fold change /veh CYB561 (11721691_x_at) / RFU ANKRD19P (11752326_a_at) / Fold change /veh ANKRD19P (11752326_a_at) / RFU OR2T12 /// OR2T33 /// OR2T8 (11738714_s_at) / Fold change /veh OR2T12 /// OR2T33 /// OR2T8 (11738714_s_at) / RFU VCAN (11748164_a_at) / Fold change /veh VCAN (11748164_a_at) / RFU JSRP1 (11732532_at) / Fold change /veh JSRP1 (11732532_at) / RFU KRTAP10-11 (11738290_x_at) / Fold change /veh KRTAP10-11 (11738290_x_at) / RFU MYO3A (11730013_a_at) / Fold change /veh MYO3A (11730013_a_at) / RFU EBF3 (11725865_a_at) / Fold change /veh EBF3 (11725865_a_at) / RFU CAMK2N1 (11719241_x_at) / Fold change /veh CAMK2N1 (11719241_x_at) / RFU C5orf56 (11738088_a_at) / Fold change /veh C5orf56 (11738088_a_at) / RFU OLFML3 (11715873_a_at) / Fold change /veh OLFML3 (11715873_a_at) / RFU LOC100653217 /// NTM (11731650_a_at) / Fold change /veh LOC100653217 /// NTM (11731650_a_at) / RFU MAPK11 (11762145_a_at) / Fold change /veh MAPK11 (11762145_a_at) / RFU FIZ1 (11724087_x_at) / Fold change /veh FIZ1 (11724087_x_at) / RFU OASL (11726364_x_at) / Fold change /veh OASL (11726364_x_at) / RFU SOX15 (11748057_x_at) / Fold change /veh SOX15 (11748057_x_at) / RFU CD79A (11719716_a_at) / Fold change /veh CD79A (11719716_a_at) / RFU HIST1H1D (11736915_at) / Fold change /veh HIST1H1D (11736915_at) / RFU CASKIN2 (11723855_a_at) / Fold change /veh CASKIN2 (11723855_a_at) / RFU LOC730098 (11760151_x_at) / Fold change /veh LOC730098 (11760151_x_at) / RFU OR4N2 (11742367_at) / Fold change /veh OR4N2 (11742367_at) / RFU PRRT2 (11749266_a_at) / Fold change /veh PRRT2 (11749266_a_at) / RFU SNX32 (11753110_a_at) / Fold change /veh SNX32 (11753110_a_at) / RFU CDHR5 (11726645_a_at) / Fold change /veh CDHR5 (11726645_a_at) / RFU RCAN1 (11760418_a_at) / Fold change /veh RCAN1 (11760418_a_at) / RFU FAM167A (11723789_a_at) / Fold change /veh FAM167A (11723789_a_at) / RFU FAM26E (11764081_at) / Fold change /veh FAM26E (11764081_at) / RFU ISYNA1 (11749810_s_at) / Fold change /veh ISYNA1 (11749810_s_at) / RFU ACY1 (11761880_at) / Fold change /veh ACY1 (11761880_at) / RFU 11764098_at / Fold change /veh 11764098_at / RFU SAMD14 (11745864_x_at) / Fold change /veh SAMD14 (11745864_x_at) / RFU NPB (11741838_a_at) / Fold change /veh NPB (11741838_a_at) / RFU TMPRSS6 (11731388_a_at) / Fold change /veh TMPRSS6 (11731388_a_at) / RFU KRTAP10-2 (11738614_at) / Fold change /veh KRTAP10-2 (11738614_at) / RFU ARHGAP8 /// PRR5-ARHGAP8 (11727945_x_at) / Fold change /veh ARHGAP8 /// PRR5-ARHGAP8 (11727945_x_at) / RFU KRTAP5-7 /// NADSYN1 (11734609_at) / Fold change /veh KRTAP5-7 /// NADSYN1 (11734609_at) / RFU RASL12 (11751679_a_at) / Fold change /veh RASL12 (11751679_a_at) / RFU CDKN2B (11736163_a_at) / Fold change /veh CDKN2B (11736163_a_at) / RFU PRF1 (11729649_at) / Fold change /veh PRF1 (11729649_at) / RFU, ZNF638 /// ZNF638-IT1 / Fold change vs veh, ZNF638 /// ZNF638-IT1 / RFU, PANK3 / Fold change vs veh, PANK3 / RFU, SH3YL1 / Fold change vs veh, SH3YL1 / RFU, ZEB2 / Fold change vs veh, ZEB2 / RFU, NRIP1 / Fold change vs veh, NRIP1 / RFU, PTTG1IP / Fold change vs veh, PTTG1IP / RFU, CAPN2 / Fold change vs veh, CAPN2 / RFU, MED14 / Fold change vs veh, MED14 / RFU, SNORA58 / Fold change vs veh, SNORA58 / RFU, C1orf63 / Fold change vs veh, C1orf63 / RFU, LRRFIP1 / Fold change vs veh, LRRFIP1 / RFU, NDUFAF7 / Fold change vs veh, NDUFAF7 / RFU, SLC12A2 / Fold change vs veh, SLC12A2 / RFU, IBTK / Fold change vs veh, IBTK / RFU, ESF1 / Fold change vs veh, ESF1 / Fold change vs veh, TMEM50B / RFU, TAOK1 / Fold change vs veh, TAOK1 / RFU, ACBD3 / Fold change vs veh, ACBD3 / RFU, TMA16 / Fold change vs veh, TMA16 / RFU, RWDD3 / Fold change vs veh, RWDD3 / RFU, BCAT1 / Fold change vs veh, BCAT1 / RFU, EDEM3 / Fold change vs veh, EDEM3 / RFU, TMEM33 / Fold change vs veh, TMEM33 / RFU, WDR75 / Fold change vs veh, WDR75 / RFU, AHCTF1 / Fold change vs veh, AHCTF1 / RFU, TFRC / Fold change vs veh, TFRC / RFU, ZDHHC17 / Fold change vs veh, ZDHHC17 / RFU, NOM1 / Fold change vs veh, NOM1 / RFU, ARL8B / Fold change vs veh, ARL8B / RFU, ZBTB11 / Fold change vs veh, ZBTB11 / RFU, TAMM41 / Fold change vs veh, TAMM41 / RFU, KIAA1704 /// LOC100996395 / Fold change vs veh, KIAA1704 /// LOC100996395 / RFU, ING1 / Fold change vs veh, ING1 / RFU, TRMT61B / Fold change vs veh, TRMT61B / RFU, FUBP3 / Fold change vs veh, FUBP3 / RFU, TP53 / Fold change vs veh, TP53 / RFU, TNKS2 / Fold change vs veh, TNKS2 / RFU, ZFP14 / Fold change vs veh, ZFP14 / RFU, ACTR2 / Fold change vs veh, ACTR2 / RFU, PPP3R1 / Fold change vs veh, PPP3R1 / RFU, PIK3R1 / Fold change vs veh, PIK3R1 / RFU, HNRNPA1 / Fold change vs veh, HNRNPA1 / RFU, RNF170 / Fold change vs veh, RNF170 / RFU, ZNF28 / Fold change vs veh, ZNF28 / RFU, RNGTT / Fold change vs veh, RNGTT / RFU, OGT / Fold change vs veh, OGT / RFU, BRD1 / Fold change vs veh, BRD1 / RFU, MARS / Fold change vs veh, MARS / RFU, ZNF655 / Fold change vs veh, ZNF655 / RFU, FAHD1 / Fold change vs veh, FAHD1 / RFU, BDP1 / Fold change vs veh, BDP1 / RFU, LRRCC1 / Fold change vs veh, LRRCC1 / RFU, ARID1A / Fold change vs veh, ARID1A / RFU, ZNF146 / Fold change vs veh, ZNF146 / RFU, ZNF330 / Fold change vs veh, ZNF330 / RFU, GPN3 / Fold change vs veh, GPN3 / RFU, C9orf123 / Fold change vs veh, C9orf123 / RFU, N4BP2L2 / Fold change vs veh, N4BP2L2 / RFU, ARFIP1 / Fold change vs veh, ARFIP1 / RFU, FAM179B / Fold change vs veh, FAM179B / RFU, BCL10 / Fold change vs veh, BCL10 / RFU, UHRF1BP1L / Fold change vs veh, UHRF1BP1L / RFU, BET1 / Fold change vs veh, BET1 / RFU, CNOT2 / Fold change vs veh, CNOT2 / RFU, ZNF268 / Fold change vs veh, ZNF268 / Fold change vs veh, ZNF507 / RFU, DGCR2 / Fold change vs veh, DGCR2 / RFU, WDSUB1 / Fold change vs veh, WDSUB1 / Fold change vs veh, HSP90B1 /// MIR3652 / RFU, ADSS / Fold change vs veh, ADSS / RFU, GK / Fold change vs veh, GK / RFU, ZNF148 / Fold change vs veh, ZNF148 / RFU, TAF9 / Fold change vs veh, TAF9 / RFU, SLC1A5 / Fold change vs veh, SLC1A5 / RFU, SLMO2 / Fold change vs veh, SLMO2 / RFU, ABCC4 / Fold change vs veh, ABCC4 / RFU, LOC101060439 /// RAP1B / Fold change vs veh, LOC101060439 /// RAP1B / RFU, RFX7 / Fold change vs veh, RFX7 / RFU, GTPBP10 / Fold change vs veh, GTPBP10 / RFU, CNEP1R1 / Fold change vs veh, CNEP1R1 / RFU, BIVM-ERCC5 /// ERCC5 / Fold change vs veh, BIVM-ERCC5 /// ERCC5 / RFU, ILF3 / Fold change vs veh, ILF3 / RFU 11762660_at / Fold change /veh 11762660_at / RFU VCAN (11757783_s_at) / Fold change /veh VCAN (11757783_s_at) / RFU DDX43 (11728927_at) / Fold change /veh DDX43 (11728927_at) / RFU KRT8 (11758188_x_at) / Fold change /veh KRT8 (11758188_x_at) / RFU NKD1 (11759106_at) / Fold change /veh NKD1 (11759106_at) / RFU SRD5A1 (11742802_a_at) / Fold change /veh SRD5A1 (11742802_a_at) / RFU TPSAB1 /// TPSB2 (11721975_s_at) / Fold change /veh TPSAB1 /// TPSB2 (11721975_s_at) / RFU GSTM3 (11746129_a_at) / Fold change /veh GSTM3 (11746129_a_at) / RFU IL23R (11737362_x_at) / Fold change /veh IL23R (11737362_x_at) / RFU TMEM51 (11727254_a_at) / Fold change /veh TMEM51 (11727254_a_at) / RFU PIWIL2 (11732686_x_at) / Fold change /veh PIWIL2 (11732686_x_at) / RFU ORM1 (11744905_x_at) / Fold change /veh ORM1 (11744905_x_at) / RFU CCDC152 (11743942_at) / Fold change /veh CCDC152 (11743942_at) / RFU ECM1 (11717891_a_at) / Fold change /veh ECM1 (11717891_a_at) / RFU IL23R (11748794_a_at) / Fold change /veh IL23R (11748794_a_at) / RFU TNFAIP8L3 (11732012_x_at) / Fold change /veh TNFAIP8L3 (11732012_x_at) / RFU MBOAT4 (11741988_at) / Fold change /veh MBOAT4 (11741988_at) / RFU 11764193_at / Fold change /veh 11764193_at / RFU TMEM53 (11763286_at) / Fold change /veh TMEM53 (11763286_at) / RFU MAGEB2 (11727129_at) / Fold change /veh MAGEB2 (11727129_at) / RFU TMEM200A (11744735_a_at) / Fold change /veh TMEM200A (11744735_a_at) / RFU CCDC152 (11751479_a_at) / Fold change /veh CCDC152 (11751479_a_at) / RFU FAM211A (11726209_a_at) / Fold change /veh FAM211A (11726209_a_at) / RFU RGS16 (11746705_a_at) / Fold change /veh RGS16 (11746705_a_at) / RFU VCAN (11755009_s_at) / Fold change /veh VCAN (11755009_s_at) / RFU RHOB (11743442_s_at) / Fold change /veh RHOB (11743442_s_at) / RFU RGS16 (11720943_a_at) / Fold change /veh RGS16 (11720943_a_at) / RFU RGS16 (11720944_at) / Fold change /veh RGS16 (11720944_at) / RFU, VPS4B / Fold change vs veh, VPS4B / RFU, CREB1 / Fold change vs veh, CREB1 / RFU, DNAJC13 / Fold change vs veh, DNAJC13 / RFU, GNAQ / Fold change vs veh, GNAQ / RFU, CDK5R1 / Fold change vs veh, CDK5R1 / RFU, ZRANB3 / Fold change vs veh, ZRANB3 / RFU, CUL4A / Fold change vs veh, CUL4A / RFU, CCNY / Fold change vs veh, CCNY / RFU, UFL1 / Fold change vs veh, UFL1 / RFU, COG3 / Fold change vs veh, COG3 / RFU, DIAPH2 / Fold change vs veh, DIAPH2 / RFU, SKA2 / Fold change vs veh, SKA2 / RFU, AFF3 / Fold change vs veh, AFF3 / RFU, LMF1 / Fold change vs veh, LMF1 / RFU, IPO11 / Fold change vs veh, IPO11 / RFU, DFFB / Fold change vs veh, DFFB / RFU, FOXP1 / Fold change vs veh, FOXP1 / RFU, CARD8 / Fold change vs veh, CARD8 / RFU, STRN3 / Fold change vs veh, STRN3 / RFU, ADK / Fold change vs veh, ADK / RFU, RASSF2 / Fold change vs veh, RASSF2 / RFU, WIPF1 / Fold change vs veh, WIPF1 / RFU, LARP1B / Fold change vs veh, LARP1B / RFU, RASA1 / Fold change vs veh, RASA1 / RFU, RB1 / Fold change vs veh, RB1 / RFU, PPFIA1 / Fold change vs veh, PPFIA1 / RFU, MAT2A / Fold change vs veh, MAT2A / RFU, CCT5 / Fold change vs veh, CCT5 / RFU, WDR92 / Fold change vs veh, WDR92 / RFU, CUX1 / Fold change vs veh, CUX1 / RFU, TTC7A / Fold change vs veh, TTC7A / RFU, TMEM135 / Fold change vs veh, TMEM135 / RFU, DEPTOR / Fold change vs veh, DEPTOR / RFU, CPM / Fold change vs veh, CPM / RFU, DNAJB6 / Fold change vs veh, DNAJB6 / RFU, CACNA2D3 / Fold change vs veh, CACNA2D3 / RFU, DTX4 / Fold change vs veh, DTX4 / RFU, TFCP2 / Fold change vs veh, TFCP2 / RFU, GMCL1 /// GMCL1P1 / Fold change vs veh, GMCL1 /// GMCL1P1 / RFU, AEBP2 / Fold change vs veh, AEBP2 / RFU, SNHG1 /// SNORD22 /// SNORD25 /// SNORD26 /// SNORD27 /// SNORD28 /// SNORD29 /// SNORD31 / Fold change vs veh, SNHG1 /// SNORD22 /// SNORD25 /// SNORD26 /// SNORD27 /// SNORD28 /// SNORD29 /// SNORD31 / Fold change (Aza/veh), C12orf56 (ProbeSet 11735607_a_at) / Fold change (ACY-1035/veh), C12orf56 (ProbeSet 11735607_a_at) / Fold change (Aza/veh), FGFR1OP (ProbeSet 11751329_s_at) / Fold change (ACY-1035/veh), FGFR1OP (ProbeSet 11751329_s_at) / Fold change (Aza/veh), VPS36 (ProbeSet 11739960_a_at) / Fold change (ACY-1035/veh), VPS36 (ProbeSet 11739960_a_at) / RFU SYPL1 (11715823_x_at) / Fold change /veh SYPL1 (11715823_x_at) / RFU IGFBP7 (11715501_s_at) / Fold change /veh IGFBP7 (11715501_s_at) / RFU REEP3 (11722064_at) / Fold change /veh REEP3 (11722064_at) / RFU IGLL1 (11728026_x_at) / Fold change /veh IGLL1 (11728026_x_at): dose or concentration left out as unconfirmed
Settings: MV-4-11 cells, 48 hours

Nc1ccc(-c2cccs2)cc1NC(=O)c1ccc2c(c1)cc(C1CC1)n2CCN1CCOCC1 [ACY-1035]
Fold change /veh ABCC12 (11746883_a_at): 1.17
